In patent publication US20260200920A1, “SUBSTITUTED AMINOPYRIDINE COMPOUNDS FOR USE AS AKT1 INHIBITORS” (Atavistik Bio, Inc., priority 2023, published 2026) one finds IC50 data, which are given here for 18 molecules.

SMILES strings stand for the structures.

Assay [1] concerns the target T1, human recombinant kinase full-length AKT1 E17K (Homo sapiens, UniProt P31749, E17K).
T1 construct: Purified human recombinant kinase full-length AKT1 E17K was expressed in insect cells; made in house; host or cells: insect cells
Description: AKT1 E17K kinase assay (TR-FRET, Lance). The class given is biochemical. The following applies: 0.6 nM AKT1 E17K, 50 nM Ulight-CREBtide, either 50 μM ATP or 2 mM ATP, 60 min at RT. The method, then:
AKT1 E17K kinase assay: Inhibitory effects of compounds on AKT1 E17K were undertaken in a 10-pt dose response kinase activity assay measuring phospho-peptide product formation based on TR-FRET signal as described in the following paragraph.
(§1) Purified human recombinant kinase full-length AKT1 E17K was expressed in insect cells and activated in vitro by PDPK1. Ulight™-CREBtide (PerkinElmer, catalog number TRF0107) was used as the peptide substrate. The reaction buffer consisted of 50 mM HEPES pH 7.5, 10 mM MgCl2, 0.01% Triton X-100, 0.01% BSA, 2 mM DTT, 0.6 nM AKT1 E17K, 50 nM Ulight™-CREBtide and either 50 μM ATP or 2 mM ATP. The compound solution was prepared as 10 mM DMSO stock. For the assay, a 1.3 serial dilution 10-pt dose response of test compounds, in duplicate, for each concentration were dispensed into a 384-well plate (Corning, catalog number 4513). Final DMSO concentration in the assay was 1%. The enzyme mixture (5 μL, 1.2 nM) were added and the mixture was incubated for 15 min at RT prior to the start of the kinase reaction by the addition of 5 μL substrate mixture (100 nM Ulight™-CREBtide). The reaction was stopped after 60 min of incubation at RT by the addition of 10 μL of Detection Mix (PerkinElmer, #CR97-100) consisting of Europium-anti-phospho-CREB (Ser133) (Perkin Elmer, catalog number TRF0200). Incubation with the detection mix for a further 60 min allowed binding of antibody to the phospho-Ulight™ CREBtide. The fluorescence emissions at 620 nm and 665 nm after excitation at 350 nm was measured using Envision reader. The ratio of the emissions at 665 nm and at 620 nm provided the measure for the amount of phosphorylated CREBtide product of AKT1 E17K kinase activity. To determine the IC50 values, the data was normalized (enzyme reaction without inhibitor=0% inhibition, all other assay components but no enzyme=100% inhibition) and IC50 values were calculated by a 4-parameter fit using an in-house developed protocol.
Table 9 assigns each compound a code for potency in the AKT1 E 17K kinase assay: A, B, or C. According to the code, A represents an IC50 value <500 nM; B represents an IC50 value from ≥500 nM to <2000 nM; and C represents an IC50 value ≥2000 nM.
A general note: TR-FRET usually uses a lanthanide donor and a delayed reading to cut background.

Assay [2] deals with T2, human recombinant kinase full-length wildtype AKT1 (Homo sapiens, UniProt P31749).
T2 construct: Purified human recombinant kinase full-length wildtype AKT1 was expressed in insect cells; made in house; host or cells: insect cells
T2 sequence (P31749 whole entry): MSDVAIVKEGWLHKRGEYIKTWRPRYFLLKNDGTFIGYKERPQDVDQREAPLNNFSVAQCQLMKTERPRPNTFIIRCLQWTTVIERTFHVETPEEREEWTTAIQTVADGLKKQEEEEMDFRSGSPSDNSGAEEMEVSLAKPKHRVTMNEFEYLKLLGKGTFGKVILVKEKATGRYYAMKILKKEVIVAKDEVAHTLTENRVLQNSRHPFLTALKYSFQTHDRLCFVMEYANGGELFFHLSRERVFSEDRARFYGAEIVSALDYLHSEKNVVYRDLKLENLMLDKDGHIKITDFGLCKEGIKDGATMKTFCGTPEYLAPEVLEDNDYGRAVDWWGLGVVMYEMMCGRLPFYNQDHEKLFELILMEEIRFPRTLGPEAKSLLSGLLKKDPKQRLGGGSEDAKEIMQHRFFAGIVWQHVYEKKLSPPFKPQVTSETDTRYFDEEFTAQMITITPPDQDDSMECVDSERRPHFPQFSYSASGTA
As to the kind of experiment: AKT1 kinase assay (wildtype, TR-FRET, Lance). The class given is biochemical. The following applies: 0.6 nM wildtype AKT1, 50 nM Ulight-CREBtide, either 50 μM ATP or 2 mM ATP, 60 min at RT. The method, then:
AKT1 kinase assay: Inhibitory effects of compounds on wildtype AKT1 were undertaken in a 10-pt dose response kinase activity assay measuring phospho-peptide product formation based on TR-FRET signal as described in the following paragraph.
as §1, with “full-length wildtype” for “full-length”, “AKT1” for “AKT1 E17K”, “AKT1,50” for “AKT1 E17K, 50”, “1:3” for “1.3”
The symbol +++ represents an IC50 value <20 μM; the symbol ++ represents an IC50 value from ≥20 μM to 80 μM.

T1 sequence (P31749 whole entry E17K): as the sequence (P31749 whole entry) above, with E17K counted along it

On to `CC(c1ccc(-n2c(-c3cccnc3N)nc3ccc(-c4ccccc4)nc32)cc1)N1CCCC(C(=O)O)C1` (stereo not drawn) [Compound I-83, 1-(1-(4-(2-(2-aminopyridin-3-yl)-5-phenyl-3H-imidazo[4,5-b]pyridin-3-yl)phenyl)ethyl)piperidine-3-carboxylic acid], for which the IC50 (commonly the concentration that inhibits the measured activity by half) in assay [1] was no less than 2 µM; in assay [2], less than 20 µM.

Turning to `Cc1nc(NC2CCC(C(=O)O)CC2)ccc1-n1c(-c2cccnc2N)nc2ccc(-c3ccccc3)nc21` (stereo not drawn) [Compound I-109, 4-((5-(2-(2-aminopyridin-3-yl)-5-phenyl-3H-imidazo[4,5-b]pyridin-3-yl)-6-methylpyridin-2-yl)amino)cyclohexane-1-carboxylic acid], the IC50 in assay [1] was 0.5 to 2 µM; in assay [2], less than 20 µM.

With `Nc1ncccc1-c1nc2ccc(-c3ccccc3)nc2n1-c1ccc(CNC(=O)C2CC(=O)CC(=O)C2)cc1` [Compound I-38, N-(4-(2-(2-aminopyridin-3-yl)-5-phenyl-3H-imidazo[4,5-b]pyridin-3-yl)benzyl)-3,5-dioxocyclohexane-1-carboxamide], the concentration for half-maximal inhibition (IC50) was less than 0.5 µM in assay [1] and less than 20 µM in assay [2].

Consider `Nc1ncccc1-c1nc2ccc(-c3ccccc3)nc2n1-c1ccc(NC(=O)[C@H]2CC[C@H](C(=O)O)CC2)c(F)c1` [Compound I-6, (1r,4r)-4-((4-(2-(2-aminopyridin-3-yl)-5-phenyl-3H-imidazo[4,5-b]pyridin-3-yl)-2-fluorophenyl)carbamoyl)cyclohexane-1-carboxylic acid], for which the IC50 in assay [1] was 0.5 to 2 µM; in assay [2], less than 20 µM.

`CC1(C)CC(CN2CCC(c3ccc(-n4c(-c5cccnc5N)nc5ccc(-c6ccccc6)nc54)cc3)CC2)CCC1C(=O)O` (stereo not drawn) [Compound I-193]: the IC50 in assay [1] is no less than 2 µM; in assay [2], less than 20 µM.

`Cc1nc(NC(=O)C2CCC(C(=O)O)CC2)ccc1-n1c(-c2cccnc2N)nc2ccc(-c3ccccc3)nc21` (stereo not drawn) [Compound I-108, 4-((5-(2-(2-aminopyridin-3-yl)-5-phenyl-3H-imidazo[4,5-b]pyridin-3-yl)-6-methylpyridin-2-yl)carbamoyl)cyclohexane-1-carboxylic acid]: the half-maximal inhibitory concentration (IC50) in assay [1] is 0.5 to 2 µM; in assay [2], less than 20 µM.

On to `Nc1ncccc1-c1nc2ccc(-c3ccccc3)nc2n1-c1ccc(CNC2CCC(C(=O)O)CC2)cc1` (stereo not drawn) [Compound I-31, 4-((4-(2-(2-aminopyridin-3-yl)-5-phenyl-3H-imidazo[4,5-b]pyridin-3-yl)benzyl)amino)cyclohexane-1-carboxylic acid], for which the IC50 in assay [1] was 0.5 to 2 µM; in assay [2], less than 20 µM.

As for `Nc1ncccc1-c1nc2ccc(-c3ccccc3)nc2n1-c1ccc(NCC2CCC(C(=O)O)CC2)nc1` (stereo not drawn) [Compound I-12, 4-(((5-(2-(2-aminopyridin-3-yl)-5-phenyl-3H-imidazo[4,5-b]pyridin-3-yl)pyridin-2-yl)amino)methyl)cyclohexane-1-carboxylic acid], the values for the IC50 in assay [1] and in assay [2] were less than 0.5 µM and less than 20 µM, respectively.

As for `Nc1ncccc1-c1nc2ccc(-c3ccccc3)nc2n1-c1ccc(CN2CC3(CC(C(=O)O)C3)C2)cc1` [Compound I-93, 2-(4-(2-(2-aminopyridin-3-yl)-5-phenyl-3H-imidazo[4,5-b]pyridin-3-yl)benzyl)-2-azaspiro[3.3]heptane-6-carboxylic acid], the IC50 in assay [1] is 0.5 to 2 µM; in assay [2] it was less than 20 µM.

In the case of `CN(Cc1ccc(-n2c(-c3cccnc3N)nc3ccc(-c4ccccc4)nc32)cc1)[C@H]1CC[C@@H](C(=O)O)CC1` [Compound I-95, (1s,4s)-4-((4-(2-(2-aminopyridin-3-yl)-5-phenyl-3H-imidazo[4,5-b]pyridin-3-yl)benzyl)(methyl)amino)cyclohexane-1-carboxylic acid], the half-maximal inhibitory concentration (IC50) in assay [1] is less than 0.5 µM; in assay [2] it was less than 20 µM.

Consider `Nc1ncccc1-c1nc2ccc(-c3ccccc3)nc2n1-c1ccc([C@H]2CCN(C[C@H]3CC[C@H](C(=O)O)CC3)C2)cc1` (single isomer, unassigned) [Compound I-232], for which the IC50 in assay [1] was 0.5 to 2 µM; in assay [2] it was less than 20 µM.

With `Cc1cc(C2CN(C[C@H]3CC[C@H](C(=O)O)CC3)C2)ccc1-n1c(-c2cccnc2N)nc2ccc(-c3ccccc3F)nc21` [Compound I-209], the IC50 in assay [1] was 0.5 to 2 µM; in assay [2], less than 20 µM.

In the case of `Cn1nccc1-c1ccc2nc(-c3cccnc3N)n(-c3ccc(NC(=O)[C@H]4CC[C@H](C(=O)O)CC4)nc3)c2n1` [Compound I-116, (1r,4r)-4-((5-(2-(2-aminopyridin-3-yl)-5-(1-methyl-1H-pyrazol-5-yl)-3H-imidazo[4,5-b]pyridin-3-yl)pyridin-2-yl)carbamoyl)cyclohexane-1-carboxylic acid], the figures for the IC50 in assay [1] and in assay [2] were 0.5 to 2 µM and less than 20 µM, respectively.

In the case of `Nc1ncccc1-c1nc2ccc(-c3ccccc3)cc2n1-c1ccc(NC(=O)C2CCCC(C(=O)O)C2)nc1` (stereo not drawn) [Compound I-111, 3-((5-(2-(2-aminopyridin-3-yl)-6-phenyl-1H-benzo[d]imidazol-1-yl)pyridin-2-yl)carbamoyl)cyclohexane-1-carboxylic acid], the IC50 in assay [1] is 0.5 to 2 µM; in assay [2], less than 20 µM.

Consider `CC(C)(C(=O)O)C1CCN(c2ccc(-n3c(-c4cccnc4N)nc4ccc(-c5ccccc5)nc43)cn2)C1` (stereo not drawn) [Compound I-39, 2-(1-(5-(2-(2-aminopyridin-3-yl)-5-phenyl-3H-imidazo[4,5-b]pyridin-3-yl)pyridin-2-yl)pyrrolidin-3-yl)-2-methylpropanoic acid], for which the IC50 in assay [1] is no less than 2 µM; in assay [2], less than 20 µM.

Take `Nc1ncccc1-c1nc2ccc(-c3ccccc3)nc2n1-c1ccc(C2CCN(C[C@@H]3CCC[C@H](C(=O)O)C3)CC2)cc1` (stereo in doubt) [Compound I-192]: the concentration for half-maximal inhibition (IC50) in assay [1] was 0.5 to 2 µM; in assay [2] it was less than 20 µM.

As to `Nc1ncccc1-c1nc2ccc(-c3ccccc3)nc2n1-c1ccc(C2CN(CC34CCC(C(=O)O)(CC3)CC4)C2)cc1` [Compound I-146], the values for the IC50 in assay [1] and in assay [2] were less than 0.5 µM and less than 20 µM, respectively.

`Cc1nc(NC(=O)C2CCC(C(C)C(=O)O)C2)ccc1-n1c(-c2cccnc2N)nc2ccc(-c3ccccc3)nc21` (stereo not drawn) [Compound I-132, 2-(3-((5-(2-(2-aminopyridin-3-yl)-5-phenyl-3H-imidazo[4,5-b]pyridin-3-yl)-6-methylpyridin-2-yl)carbamoyl)cyclopentyl)propanoic acid]: the IC50 in assay [1] was 0.5 to 2 µM; in assay [2], less than 20 µM.
